Legend:
Type in all cases: cell-based, human
BJ1 fibroblasts = assay: Immunoblot of STING signaling in BJ1 fibroblasts stimulated with cGAMP; conditions: cGAMP 2 hours, 0.5 μM MLN7243, FIG. 5D
Protocol: MLN7243 was added again after medium replacement. Cells were stimulated for the indicated times.
Samples for pull-downs or immunoprecipitations were treated as described in the corresponding paragraphs. For experiments involving seeding of cells in 6 well plates or 24 well plates (293 Ts and hTert-BJ1), one well per condition was harvested, lysed in RIPA buffer (Boston Bioproducts) containing complete, Mini, EDTA-free Protease Inhibitor Cocktail (Millipore Sigma) and PhosSTOP (Millipore Sigma) for 10 minutes on ice. Lysates were cleared by centrifugation at 16000 g for 10 minutes at 4° C. and Laemmli 6×, Sample buffer, SDS, and reducing agents (Boston Bioproducts) were added prior to loading. Samples were run on NuPAGE 4 to 12%, Bis-Tris Gels (Thermo Fisher) and transferred on nitrocellulose membrane with an iBlot2 (Thermo Fisher). Membranes were blocked in 5% non-fat milk in TBS Tween. Antibodies against phospho-proteins were incubated in 5% BSA TBS tween. ECL signal was recorded on a ChemiDoc Biorad Imager. Data was analyzed with ImageLab (Biorad).

[1] = test system: STING association with ESCRT (HGS, VPS37A) and TBK1; assay: STING-TurboID proximity biotin labeling and streptavidin pull-down in 293T; conditions: 293T STING-TurboID; 3 hours; 0.5 μM MLN7243; FIG. 5C
Protocol: Generation of cells and stimulation. 293T cells were transduced with pTRIP-hPGK-Blast-2A-STING-TurboID and selected with 15 μg/mL Blasticidin (Invivogen) for one week. To test the construct via pull-down, 0.8 million cells were seeded in a 6 well plate. The following day, cells were permeabilized with 300 μl/well of cGAMP permeabilization buffer [50 mM HEPES (Corning), 100 mM KCl (Thermo Fisher), 3 mM MgCl2 (Thermo Fisher), 0.1 mM DTT (Thermo fisher), 85 mM Sucrose (Thermo Fisher), 0.5 mM ATP (Cayman chemicals), 0.1 mM GTP (Cayman Chemicals), 0.2% BSA (Seracare), 0.001% Digitonin (Promega)| containing 1 μg/mL 2′3′-cGAMP (Invivogen) or water for 10 minutes at 37° C., washed with 3 mL of warm medium and then medium was replaced. For mass-spec, 6 million cells were seeded in a 10 cm dish for each condition. Cells were stimulated with 2.8 mL of cGAMP permeabilization buffer containing 6 μg total of cGAMP per dish. Cells were left stimulating for the desired times and 500 μM biotin (Cayman chemicals) was added in each well 30 minutes prior to harvest. Cells were harvested by trypsinization, washed 3 times in cold PBS and pellets were frozen until processing. For experiments in 6 well plates, 3 wells per condition were harvested. For experiments in 10 cm dishes, one dish per condition was harvested.
Pull-down. […]

[2] = test system: 293T stably expressing STING-HA; assay: Immunofluorescence of HGS, p62, CD63, LC3B and STING in 293T STING-HA after cGAMP; conditions: 293T STING-HA; cGAMP 2 hours; MLN7243; FIGS. 5E-5F
Protocol: 293T STING-TurboID were seeded directly on coverslips. 293T STING-HA were seeded on Fibronectin bovine plasma (Sigma-stock: 100×) coated coverslips. Cells were seeded the day before stimulation at 0.1 million cells/well density in 24 well plates. Cells were stimulated with cGAMP permeabilization buffer containing 1 μg/mL cGAMP for 10 minutes, washed with warm medium, and incubated for the indicated times. hTert-BJ1 mScarlet or mScarlet-UBAP1DN were seeded Fibronectin bovine plasma coated coverslips at 0.05 million cells/well density in a 24 well plate and fixed 6 hours post seeding. Cells were then fixed with 2% Paraformaldehyde (Electron Microscopy Sciences) in PHEM buffer (Electron Microscopy Sciences) for 30 minutes at 37° C., washed three times with PBS and quenched with freshly prepared 0.1M Glycine for 10 minutes. Coverslips were then permeabilized and blocked with 10% goat serum (Thermo Fisher) in PBS, 0.5% BSA (Seracare), 0.05% Saponin from Quillaja bark (Sigma) for 30 minutes. Coverslips were then stained with primary antibodies for 1-2 hours at room temperature in PBS, 0.5% BSA (Seracare), 0.05% Saponin from Quillaja bark (Sigma) with 10% goat serum, washed 5 times, and then stained with secondary antibodies in PBS, 0.5% BSA (Seracare), 0.05% Saponin from Quillaja bark (Sigma) for 1-2 hours. […] Images were analyzed in FiJi. […]

NS(=O)(=O)OC[C@H]1C[C@@H](Nc2ccnc3cc(-c4cccc(SC(F)(F)F)c4)nn23)[C@H](O)[C@@H]1O [MLN7243]
STING degradation (BJ1 fibroblasts): abrogated STING degradation
lipidated LC3B (BJ1 fibroblasts): induced accumulation of lipidated LC3B
phospho-STING signaling (BJ1 fibroblasts): increased phospho-STING signaling
biotin labeling of HGS and VPS37A by STING-TurboID [1]: reduced the biotin labeling of HGS and VPS37A
biotin labeling of TBK1 by STING-TurboID [1]: unaffected
HGS co-localization with p62 [2]: failed to co-localize with p62
HGS foci co-localizing with STING [2]: completely lost
